Test results as given in US20250134887A1, “METHODS OF TREATING PROSTATE CANCER” (AstraZeneca AB, priority 2022, published 2025).

How the values were obtained:
[1] = tested on: patients with progressive mCRPC who had not received chemotherapy; conditions: COU-AA-302; cited from earlier work
patients with mCRPC = assay: PROpel phase III trial: safety, adverse events (CTCAE v.4.03); assay type: in vivo, human
Procedure: Trial design and interventions. This was a double-blind, placebo-controlled, phase Ill trial. Eligible patients were randomized (1:1) to treatment with abiraterone acetate (1000 mg once daily) in combination with either olaparib (300 mg twice daily) or placebo. All patients received prednisone or prednisolone (5 mg twice daily) as per the abiraterone acetate label requirement. Randomization was stratified by distant metastasis type (bone only/visceral/other) at baseline and by docetaxel treatment at the mHSPC stage of disease (yes or no). Study treatment continued until objective imaging-based progressive disease assessed by investigator (using Response Evaluation Criteria in Solid Tumors [RECIST 1.1] for soft tissue lesions and Prostate Cancer Working Group-3 [PCWG-3] criteria for bone lesions), unacceptable toxicity, or withdrawal of consent. Following objective disease progression, further treatment options were at the discretion of the investigator. Patients could continue study treatment if the investigator believed, that the patient could continue to receive clinical benefit, was not experiencing serious toxicity and there was no available better alternative treatment. Crossover from placebo to receive olaparib in combination with abiraterone acetate was not allowed.
Safety was assessed through reporting of adverse events and serious adverse events (according to Common Terminology Criteria for Adverse Events v.4.03) based on physical examination findings, vital signs, ECG findings and laboratory test results.
Statistical analysis. Efficacy was analyzed for the intention-to-treat population and safety was analyzed for all patients who received any amount of abiraterone acetate, olaparib, or placebo. Patients who received at least one dose of olaparib were included in the abiraterone acetate and olaparib arm.

[2] = male, human, in vivo, 15.7 months

## CC(=O)O[C@H]1CC[C@@]2(C)C(=CC[C@@H]3[C@@H]2CC[C@]2(C)C(c4cccnc4)=CC[C@@H]32)C1 [abiraterone acetate and placebo, (3β)-17-(3-pyridinyl) androsta-5,16-dien-3-yl acetate]
[1]
  median radiographic progression-free survival: 16.5 months
Patients with mCRPC; All Grades
  Anemia, % of patients: (16.4) %
  Anemia, number of patients: 65
  Any adverse event, % of patients: (94.9) %
  Any adverse event, number of patients: 376
  Arthralgia, % of patients: (17.7) %
  Arthralgia, number of patients: 70
  Back pain, % of patients: (18.4) %
  Back pain, number of patients: 73
  Cardiac failure adverse events, % of patients: (1.3) %
  Cardiac failure adverse events, number of patients: 5
  Constipation, % of patients: (13.9) %
  Constipation, number of patients: 55
  Decreased appetite, % of patients: (5.8) %
  Decreased appetite, number of patients: 23
  Diarrhea, % of patients: (9.3) %
  Diarrhea, number of patients: 37
  Dizziness, % of patients: (6.3) %
  Dizziness, number of patients: 25
  Embolic and thrombotic arterial adverse events, % of patients: (2.5) %
  Embolic and thrombotic arterial adverse events, number of patients: 10
  Fatigue or asthenia, % of patients: (28.3) %
  Fatigue or asthenia, number of patients: 112
  Hypertension, % of patients: (16.4) %
  Hypertension, number of patients: 65
  Nausea, % of patients: (12.6) %
  Nausea, number of patients: 50
  Peripheral edema, % of patients: (11.4) %
  Peripheral edema, number of patients: 45
  Urinary tract infection, % of patients: (7.8) %
  Urinary tract infection, number of patients: 31
  Vomiting, % of patients: (9.1) %
  Vomiting, number of patients: 36
Patients with mCRPC; Grade ≥ 3
  Anemia, % of patients: 3.3%
  Anemia, number of patients: 13
  Any adverse event, % of patients: (38.4) %
  Any adverse event, number of patients: 152
  Arthralgia, % of patients: (0.5) %
  Arthralgia, number of patients: 2
  Back pain, % of patients: (1.0) %
  Back pain, number of patients: 4
  COVID-19, % of patients: 2.0%
  COVID-19, cases: 8
  Constipation, % of patients: (0.3) %
  Constipation, number of patients: 1
  Decreased appetite, number of patients: 0
  Diarrhea, % of patients: (0.3) %
  Diarrhea, number of patients: 1
  Dizziness, number of patients: 0
  Fatigue or asthenia, % of patients: (1.5) %
  Fatigue or asthenia, number of patients: 6
  Hypertension, % of patients: (3.3) %
  Hypertension, number of patients: 13
  Nausea, % of patients: (0.3) %
  Nausea, number of patients: 1
  Peripheral edema, % of patients: (0.3) %
  Peripheral edema, number of patients: 1
  Urinary tract infection, % of patients: (1.0) %
  Urinary tract infection, number of patients: 4
  Vomiting, % of patients: (0.3) %
  Vomiting, number of patients: 1
Patients with mCRPC; Grade ≥ 3, listed as Abiraterone and Placebo
  Anemia, % of patients: (3.3) %
Patients with mCRPC; all grades
  COVID-19, % of patients: 4.5%
  COVID-19, cases: 18
Patients with mCRPC; human, in vivo, 15.7 months
  Any serious adverse event, % of patients: (27.0) %
  Any serious adverse event, number of patients: 107
  Death due to an adverse event, % of patients: (4.3) %
  Death due to an adverse event, number of patients: 17
  Discontinuation of abiraterone acetate due to an adverse event, % of patients: (8.8) %
  Discontinuation of abiraterone acetate due to an adverse event, number of patients: 35
  Discontinuation of olaparib/placebo due to an adverse event, % of patients: (7.8) %
  Discontinuation of olaparib/placebo due to an adverse event, number of patients: 31
  Dose reduction of abiraterone acetate due to an adverse event, % of patients: (4.3) %
  Dose reduction of abiraterone acetate due to an adverse event, number of patients: 17
  Dose reduction of olaparib/placebo due to an adverse event, % of patients: (5.6) %
  Dose reduction of olaparib/placebo due to an adverse event, number of patients: 22
  Interruption of abiraterone acetate because of an adverse event, % of patients: (22.0) %
  Interruption of abiraterone acetate because of an adverse event, number of patients: 87
  Interruption of olaparib/placebo because of an adverse event, % of patients: (25.3) %
  Interruption of olaparib/placebo because of an adverse event, number of patients: 100
Patients with mCRPC; in vivo
  Deep-vein thrombosis, patients: three
  pulmonary embolism, cases: seven
Patients with mCRPC; [2]
  Deep-vein thrombosis, % of patients: 0.8%
  new primary cancers, % of patients: 2.5%
  new primary cancers, reports: 10
  pulmonary embolism, % of patients: 1.8%
